Measured values from US9447157B2, “Nitration shielding peptides and methods of use thereof” (Augusta University Research Institute, Inc., priority 2013, dated 2016).
Substitutions are numbered along the chain they refer to.

What was measured:
Settings in all cases: SIN-1 500 μM 30 min
PKG-1α [1] = target: T1, PKG-1α (Homo sapiens, UniProt Q13976, Y247F); assay: [3H]cGMP dissociation/exchange assay; assay type: binding
T1 sequence (Q13976 2-671 Y247F): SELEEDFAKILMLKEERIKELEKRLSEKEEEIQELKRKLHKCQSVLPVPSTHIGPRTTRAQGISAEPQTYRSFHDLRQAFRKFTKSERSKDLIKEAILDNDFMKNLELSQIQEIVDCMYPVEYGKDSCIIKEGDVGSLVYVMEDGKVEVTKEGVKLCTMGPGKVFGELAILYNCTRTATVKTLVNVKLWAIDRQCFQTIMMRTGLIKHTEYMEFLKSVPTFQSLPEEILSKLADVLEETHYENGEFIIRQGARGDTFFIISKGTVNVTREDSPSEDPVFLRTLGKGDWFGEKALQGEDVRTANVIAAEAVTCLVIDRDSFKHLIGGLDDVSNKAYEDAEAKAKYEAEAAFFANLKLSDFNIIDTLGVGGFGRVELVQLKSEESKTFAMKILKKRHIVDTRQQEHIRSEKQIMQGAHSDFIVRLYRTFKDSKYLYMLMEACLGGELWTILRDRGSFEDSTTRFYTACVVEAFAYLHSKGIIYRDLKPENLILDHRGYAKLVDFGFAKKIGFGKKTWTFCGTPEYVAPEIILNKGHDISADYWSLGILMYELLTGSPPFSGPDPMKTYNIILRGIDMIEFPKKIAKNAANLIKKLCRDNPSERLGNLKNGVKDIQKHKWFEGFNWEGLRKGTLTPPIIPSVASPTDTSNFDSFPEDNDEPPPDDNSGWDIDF
Protocol: (§1) WT- and Y247F-PKG-1α were immunopurified, as described above then incubated for 60 min at room temperature with 3 ml of cGMP-binding assay mixture containing 3 μM [^3H]cGMP. This incubation time and dose has been previously experimentally determined to be adequate for the saturation of the cGMP-binding sites in PKG. After incubation, the samples were cooled to 4° C. and divided into 200 μl aliquots per tube. The addition of 100-fold excess unlabeled cGMP at time 0 sec (Bo) initiated the dissociation (exchange) of the bound [^3H]cGMP. The cGMP exchange in each tube was stopped at the appropriate time point by the addition of 2 ml of cold aqueous saturated (NH4)2SO4. The samples were filtered, washed, and the portion of bound [^3H]cGMP at any time point was determined, as described previously.

PKG-1α [2] = target: T2, PKG-1α (Homo sapiens, UniProt Q13976); assay: [3H]cGMP dissociation/exchange assay; assay type: binding
T2 construct: transfected with an expression plasmid containing a full length WT-PKG-1α cDNA; made in house; host or cells: HEK-293T (methods); the results paragraph b527 says PASMC
T2 sequence (Q13976 2-671): T1 sequence (Q13976 2-671 Y247F) with F246Y
Protocol: as §1

PKG-1α [3] = assay: PKG activity in transfected HEK-293T cells; assay type: cell-based, human
Protocol: To determine the role of tyrosine 247 and tyrosine 425 in mediating the nitration dependent inhibition of PKG-1α kinase activity, Y247F- and Y425F-PKG-1α mutants were generated and expressed in HEK-293T cells. HEK-293T cells were transiently transfected with expression plasmids containing WT-, Y247F-, or Y425F-PKG-1α for 48 h. Cells were also treated or not with SIN-1 (500 μM, 30 min). Protein extracts were immunoprecipitated using an antibody raised against PKG-1α and the level of nitrated PKG-1α determined by probing the membranes with an antiserum raised against 3-NT. The blots were then stripped and re-probed for PKG-1α to normalize for the efficiency of the immunoprecipitation.
Measurement of PKG Catalytic Activity Total PKG activity was determined using a non-radioactive immunoassay in cell lysates, according to the manufacturer's directions. […]
After incubation for 30 min at 30° C. to allow the phosphorylation of the bound substrate, an HRP conjugated anti-phosphothreonine specific antibody was added to convert a chromogenic substrate to a colorimetric substrate that was subsequently read spectrophotometrically at 450 nm. The change in absorbance reflected the relative activity of PKG in the sample. […] The kinetic constants were determined using nonlinear regression (curve fit) analysis (GraphPad Prism Software Inc).

3-morpholinosydnonimine N-ethylcarbamide [SIN-1]
[3H]cGMP exchange/dissociation from Y247F mutant (PKG-1α [1]): but not from the Y247F mutant | [3H]cGMP exchange/dissociation from WT-PKG-1α (PKG-1α [2]): enhanced | cGMP dependent PKG activity, WT- and Y425F-PKG-1α cells (PKG-1α [3]; HEK-293T expressing WT- and Y425F-PKG-1α): attenuated | cGMP-independent PKG activity (PKG-1α [3]; transfected HEK-293T): did not alter
